# In US6831080B2, “Cinnamide derivatives as KCNQ potassium channel modulators” (Bristol-Myers Squibb Company, priority 2001, dated 2004):
# Assays:
# [1] = system: stretched attend postures, BalbC/HSD mice; experiment: Canopy test for anxiety: stretched attend postures (SAPs); assay type: in vivo, mouse
# Text: The purpose of the Canopy test is to investigate the potential of compounds of Formula I as effective treatments for anxiety by examining an integral component of the risk assessment repertoire of defensive behaviors, the stretched attend posture (SAPs). […] This behavior is investigatory, and is considered an important behavioral indicator of anxiety in mice (Grewal et al., 1997). In brief, mice are placed on an elevated circular platform with a covered space in the middle, and an open space surrounding the covered zone. The number of SAPs the animals makes when exploring this environment are measured.
# Subjects: Male BalbC/HSD mice (Harlan Sprague Dawley) weighing approximately 20-25 g at the beginning of the experiment, were used. Animals were group housed 4-5 per cage, in standard shoebox cages and maintained on a 12:12 h light-dark cycle (lights on at 0600). All animals were allowed food and water ad libitum throughout the procedure.
# Apparatus: The test apparatus is comprised of a black plexiglas circular platform (70 cm diameter) elevated 60 cm above the floor. A clear red plexiglas (translucent) ‘canopy’ (38 cm diameter) is supported 4 cm directly above the platform by a central pillar, effectively dividing the platform into an inner, covered zone (beneath the canopy) and an outer, exposed zone. The apparatus is illuminated by normal room lighting.
# Procedure: On test days mice are transported in their home cage to the testing room which is free of noise/distraction and the mice are injected with the compound of choice, prior to testing. For the KCNQ compounds, when administered IV, pretreatment time is 15 minutes. For oral administration, pretreatment time is 1 hour. Following the pretreatment, the animal is placed in the covered zone of the platform, always oriented in the same direction, facing the pillar. For 5 minutes the animals are allowed to freely explore the apparatus. The dependent variable is the number of Stretched Attend Postures, which are scored by an observer blind to treatment condition. Data were analyzed by an overall analysis of variance followed by Dunnett's post hoc tests. An effect was considered significant if p<0.05.
# All test compounds are administered in a volume of 10 ml/kg. Vehicle and buspirone (as the positive control) treated mice were run with each experiment, and buspirone was dissolved in the same vehicle as used per each compound. Compounds of Formula I were administered IV, in a vehicle containing 10% PEG400/5% Tween/85% water, warmed on a hot plate.
# [2] = target: cloned mouse KCNQ2 (mKCNQ2) (Mus musculus, UniProt Q9Z351); experiment: KCNQ oocyte two-electrode voltage clamp, whole-cell outward current; assay type: cell-based; details: single holding potential (−40 μM [sic]), Xenopus oocytes
# Chain of cloned mouse KCNQ2 (mKCNQ2) (Q9Z351 whole entry): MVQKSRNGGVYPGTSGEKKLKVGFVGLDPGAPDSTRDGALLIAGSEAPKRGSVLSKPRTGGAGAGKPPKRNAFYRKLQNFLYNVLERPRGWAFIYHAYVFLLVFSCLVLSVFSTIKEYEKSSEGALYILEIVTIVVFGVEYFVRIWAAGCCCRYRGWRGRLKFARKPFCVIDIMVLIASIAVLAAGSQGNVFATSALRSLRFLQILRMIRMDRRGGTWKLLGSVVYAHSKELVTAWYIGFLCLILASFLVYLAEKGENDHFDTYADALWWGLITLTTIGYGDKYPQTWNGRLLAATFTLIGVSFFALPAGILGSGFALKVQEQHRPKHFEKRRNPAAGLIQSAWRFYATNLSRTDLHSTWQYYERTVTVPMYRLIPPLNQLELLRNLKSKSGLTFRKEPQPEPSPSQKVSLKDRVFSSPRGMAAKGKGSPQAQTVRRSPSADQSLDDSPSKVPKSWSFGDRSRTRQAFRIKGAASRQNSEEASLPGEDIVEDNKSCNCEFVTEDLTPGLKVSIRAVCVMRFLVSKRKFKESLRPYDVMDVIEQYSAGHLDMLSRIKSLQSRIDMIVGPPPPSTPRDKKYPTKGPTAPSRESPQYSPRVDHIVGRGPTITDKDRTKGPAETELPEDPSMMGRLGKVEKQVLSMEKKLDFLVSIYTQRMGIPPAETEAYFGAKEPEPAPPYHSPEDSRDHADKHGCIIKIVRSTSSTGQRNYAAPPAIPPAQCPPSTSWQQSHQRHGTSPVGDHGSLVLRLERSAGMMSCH
# Method: The ability of compounds described in the present invention to open KCNQ channels and increase whole-cell outward (K^+) KCNQ-mediated currents was assessed under voltage-clamp conditions by determining their ability to increase cloned mouse KCNQ2 (mKCNQ2)-mediated, heteromultimeric KCNQ2/3 (mKCNQ2/hKCNQ3)-mediated, and human KCNQ5 (hKCNQ5)-mediated outward currents heterologously expressed in Xenopus oocytes. Oocytes were prepared and injected using standard techniques; each oocyte was injected with approximately 50 nl of mKCNQ2, or hKCNQ5 cRNA. In the case of mKCNQ2/h3 heteromultimeric channel expression, equal amounts (25-50 nL) of each cRNA were co-injected. […] Following injection, oocytes were maintained at 17° in ND96 medium consisting of (in mM): NaCl, 90; KCl, 1.0; CaCl2, 1.0; MgCl2, 1.0; HEPES, 5.0; pH 7.5. Horse serum (5%) and penicillin/streptomycin (5%) were added to the incubation medium. Recording commenced 2-6 days following mRNA injection. Prior to the start of an experiment oocytes were placed in a recording chamber and incubated in Modified Barth's Solution (MBS) consisting of (in mM): NaCl, 88; NaHCO3, 2.4; KCl, 1.0; HEPES, 10; MgSO4, 0.82; Ca(NO3)2, 0.33; CaCl2, 0.41; pH 7.5.
# Oocytes were impaled with electrodes (1-2 MΩ) and standard 2-electrode voltage clamp techniques were employed to record whole-cell membrane currents. Recordings were accomplished using standard two-electrode voltage clamp techniques [Stuhmer, W., et al., Methods in Enzymology, Vol. 207: 319-339 (1992)]. Voltage-clamp protocols typically consisted of a series of voltage steps 1-5 sec duration, in +10 mV steps from a holding potential of −90 mV to a maximal potential of +40 mV; records were digitized at 5 kHz and stored on a computer using pClamp data acquisition and analysis software (Axon Instruments). Compounds were evaluated at a single concentration and at a single holding potential (−40 μM); the effect of the selected compounds of Formula I on KCNQ2 current was expressed as the percent of control current and is listed in Table I.
# [3] = system: nerve injury-induced tactile allodynia (L5/L6 ligation), Sprague Dawley rats; experiment: Chung model of neuropathic pain (Chung surgery and von Frey test); assay type: in vivo, rat; details: 100 mg/kg, i.v., von Frey thresholds over 90 min
# Method: To test agents for activity against peripheral mononeuropathy nerve injury-induced tactile allodynia, male Sprague Dawley rats (wt. 120-160 g) were surgically prepared with unilateral tight ligation of spinal nerves L5 and L6 following the method of Kim and Chung (Kim S. H., Chung J. M. (1992) Pain, September;50(3):355-63). After 3-4 weeks recovery, paw withdrawal to light touch was assessed as described by Chaplan et al. (Chaplan S. R., et al., (1994) J. Neurosci Methods, July;53(1):55-63). In brief, rats are placed in a plastic cage with a wire mesh bottom and allowed to acclimate for 15-30 minutes, until cage exploration and grooming stops. The plantar surface of each hind paw is touched with a series of von Frey hairs with varying stiffness requiring a known force to buckle to determine the nociceptive threshold. Adult male Sprague Dawley rats (avg. wt. 340 g) were tested in the present study. After acclimation, baseline von Frey thresholds were assessed for the injured hindpaw at −15 min. All test compounds were delivered at 0 min by the intravenous (i.v.) route in a volume of 0.5-2 ml/kg. The vehicle for test compounds was 100% PEG-400. For gabapentin the vehicle was deionized H2O. Animals were tested in one of the following 4 treatment conditions: (a) PEG400, (b) gabapentin (Neurontin) 100 mg/kg, (c) test compounds 3 mg/kg and (d) test compounds 10 mg/kg. Following drug administration, von Frey thresholds are measured at 15, 30, 60 and 90 min. Data were analyzed by a 2-way repeated measures analysis of variance followed by Dunnett's test (p<0.05). Experimenters were kept blind to the treatment condition of rats they tested.
# Reversal of neuropathic pain behavior may be expressed as a percentage (0-100%) of the maximum possible effect, over and above the vehicle effects. Specifically, drug effects can be described in terms Δ% MPE according to the following equation: [formula]
# AUCdrug=area under the curve for von Frey thresholds of the drug-treated group;
# AUCvehicle=area under the curve for von Frey thresholds in the vehicle group;
# Time=duration of post-drug testing period (90 min); and
# Max=maximum von Frey threshold (15 g).
# For example, a compound which immediately reversed neuropathic pain behavior to normal levels, such that animals only responded to the highest von Frey filament (15 g), and maintained normal levels through out the post-drug testing period (90 min) would be calculated as Δ% MPE=100%.
# [4] = system: cortical spreading depression (KCl application), Long-Evans rats; experiment: In vivo electrophysiology: number of cortical spreading depressions produced by KCl application; details: i.v., 15 min prior to KCl, rat
# Text: Male Long-Evans rats (300-450 g) were used in the present studies (Harlan). Rats were anesthetized with urethane anesthesia (1.2 g/kg i.p.) and placed in a stereotaxic frame. Under anesthesia a Silastic catheter was placed in the jugular vein of the rats. The skull was exposed using a scalpel. A small hole (approximately 2 mm by 3 mm) was drilled in to the skull rostral to the lambdoid suture using a microdrill and steel burr. The dura was disrupted and a drop of mineral oil was placed in this hole to prevent dehydration of the underlying cortex. Ultimately this hole was used for the application of crystalline KCl (described below).
# Two additional holes were place in the skull unilaterally at 4 and 8 mm rostral to the application hole. Silver wire electrodes were placed in these latter holes and secured to the skull using acrylic cement. A similar silver wire electrode was sutured to the nuchal muscle to serve as a reference electrode. Electrical DC recordings were obtained using a standard differential amplifier (Warner, DP-304) and commercially available data acquisition equipment (Cambridge Electronic Design, 1401 A-D converter and Spike2 software).
# All experimental procedures were conducted while the rats were maintained under anesthesia. Rats were injected with test compound, valproic acid or vehicle (100% PEG-400) 15 min prior to the application of crystalline KCl to the application site described above. All injections were given via the jugular vein at a volume of ≦0.5 ml/kg. Only one treatment was tested per animal. The effect of valproic acid was also determined in this study due to the fact that Depakote™ (divalproex sodium) is one of only three drugs currently indicated for the prophylatic treatment of migraine headache. Valproic acid (30-200 mg/kg i.v.) was obtained from Sigma Chemical Company and was dissolved in a vehicle of isotonic saline.
# KCl was applied to the application site for 10 min and was then removed using a saline soaked cotton swab. Mineral oil was subsequently reapplied to the application site. Typically, this application produced a long-lasting series of spreading depressions. The number of spreading depressions produced by this KCl application was the primary measure used to access the effectiveness of compounds in this assay.
# Data were analyzed using analyses of variance followed by the Dunnett post-hoc test for pairwise comparisons, when appropriate. A difference was considered significant when p≦0.05.
# The effect of representative compounds of Formula I on spreading depression is expressed as the percent reduction from vehicle control and is listed in Table 3.
molecule,measurement,setting,value
"CC(NC(=O)/C=C/c1ccc(F)cc1)c1ccc(F)c(N2CCOCC2)c1 (racemic) [Example 152, (±)-N-[1-(4-Fluoro-3-morpho-lin-4-yl-phenyl)-eth-yl]-3-(4-fluoro-phen-yl)-acrylamide]","Stretched attend postures, percent of vehicle control","[1]; separate experiments with a vehicle control, dose not given",80 % of vehicle control
"CC(NC(=O)/C=C/c1cccc(F)c1)c1ccc2c(c1)OCCO2 (racemic) [Example 183, (±)-3-(3-Fluorophenyl)-N-[1-(2.3-dihydrobenzo[1,4]dioxin-6-yl)-ethyl]acrylamide]",activity at 10 µM,[2],135%
"COC(=O)N1CCc2ccc(C(C)NC(=O)/C=C/c3ccccc3)cc2C1 (racemic) [Example 197, (±)-7-[1-(3-Phenyl-acryloyl-amino)-ethyl]-3,4-di-hydro-1H-iso-quinoline-2-carboxylic acid methyl ester]",activity at 10 µM,[2],187%
"COC(=O)N1CCc2ccc(C(C)NC(=O)/C=C/c3ccc(Cl)cc3)cc2C1 (racemic) [Example 199, (±)-7-{1-[3-(4-Chloro-phen-yl)-acryloylamino]-eth-yl}-3,4-dihydro-1H-iso-quinoline-2-carboxylic acid methyl ester]",activity at 5 µM,[2],138%
"COC(=O)N1CCc2ccc(C(C)NC(=O)/C=C/c3ccccc3C)cc2C1 (racemic) [Example 200, (±)-7-[1-(3-o-Tolyl-acryloyl-amino)-ethyl]-3,4-di-hydro-1H-iso-quinoline-2-carboxylic acid methyl ester]",activity at 10 µM,[2],126%
"COC(=O)N1CCc2ccc(C(C)NC(=O)/C=C/c3ccccc3Cl)cc2C1 (racemic) [Example 201, (±)-7-{1-[3-(2-Chloro-phen-yl)-acryloylamino]-eth-yl}-3,4-dihydro-1H-iso-quinoline-2-carboxylic acid methyl ester]",activity at 5 µM,[2],157%
"CC(NC(=O)/C=C/c1ccc(Cl)cc1)c1ccc2c(c1)CCO2 (single isomer, unassigned) [Example 79, 3-(4-Chloro-phenyl)-N-[1-(2,3-di-hydro-benzo-furan-5-yl)-ethyl]-acrylamide]",activity at 1 µM,[2],123%
"O=C1CC2(CCCC2)CC(=O)N1CCCCN1CCN(c2ncccn2)CC1 [Buspirone, buspirone, reference compound]",% Reduction SAPs,"[1]; 0.5 mg/kg, i.v., mouse",71 (0.5 mg/kg. i.v.) %
same,Reduction in stretched attend postures (in words),"[1]; buspirone 0.5 mg/kg, compounds of Formula I administered IV",significant reduction
"C[C@H](NC(=O)/C=C/c1ccccc1)c1ccc2ccccc2c1 [Example 2, (S)-N-(1-Naphthalen-2-yl-eth-yl)-3-phenyl-acryla-mide]",activity at 5 µM,[2],160%
"COc1cccc(/C=C/C(=O)N[C@@H](C)c2ccc3ccccc3c2)c1OC [Example 6, (S)-3-(2,3-Dimethoxy-phen-yl)-N-(1-naphthalen-2-yleth-yl)-acrylamide]",activity at 1 µM,[2],110%
"C[C@H](NC(=O)/C=C/c1ccc(OC(F)(F)F)cc1)c1ccc2ccccc2c1 [Example 19, (S)-N-(1-Naphthalen-2-yl-eth-yl)-3-(4-tri-fluoromethoxy-phen-yl)-acrylamide]",activity at 1 µM,[2],123%
"NCC1(CC(=O)O)CCCCC1 [Gabapentin, gabapentin, reference compound]",AUC (Δ% MPE),[3],"50 (100 mg/kg, i.v.) Δ% MPE"
"CCCC(CCC)C(=O)O [Valproic acid, reference compound]","% Reduction (number of spreading depressions, from vehicle control)",[4]; 100 mg/kg,"31 (100 mg/kg, i.v.) %"
"(S)-N-[1-(3-(2,6-di- methyl-Morpholin)-4-yl-phen- yl)-ethyl]-3-phen- yl-acrylamide [Example 84]","% Reduction (number of spreading depressions, from vehicle control)",[4]; 1 mg/kg,"37 (1 mg/kg, i.v.) %"
